Laboratory results taken from PMC4445002, “Efficient inhibition of tumor angiogenesis and growth by a synthetic peptide blocking S100A4-methionine aminopeptidase 2 interaction” (Molecular Therapy. Methods & Clinical Development, 2015).

Legend:
[1] = test system: PC-3M-Luc tumors; test: Tumor angiogenesis (microvessel density, CD31 staining) in PC-3M-Luc xenografts; format: in vivo, human tumor in athymic nude mice; details: single intratumoral injection of 100 μg peptide in atelocollagen, tumors dissected three days after
Description: Figure 5 Inhibition of tumor angiogenesis and tumor growth of human prostate cancer cells by the NBD peptide. The peptide/atelocollagen was injected into the subcutaneous tumors on day 3 after inoculation of PC-3M-Luc cells. Atelocollagen alone was injected as controls. (a) Microvessel density. Anti-CD31-antibody staining was used to detect angiogenesis. Arrows show microvessels. The images were digitally processed for assessment of angiogenesis. (b) Inhibition of tumor growth by peptide delivery in vivo. Representative bioluminescent images of nude are shown. L, tumors treated with the CBD peptide; R, tumors treated with the NBD peptide. (c) The photon count of the bioluminescence is shown. Data represent the mean ± SD. The total number of animals is 7 in two independent experiments.
The peptide/atelocollagen complex was prepared by mixing equal volumes of atelocollagen (0.1% in PBS at pH 7.4) and peptide solution (1 mg/ml) with rotation for 30 minutes at 4 °C. The final concentration of atelocollagen was 0.5%. […] Tumor growth was assessed through peptide/atelocollagen complex administration to mice 3 days after the subcutaneous inoculation of PC-3M-Luc cells. Mice were monitored by bioluminescent imaging 14 days after the injection of the peptide/atelocollagen complex. […]

[2] = test system: MSS31 cells; test: MSS31 cell growth; format: cell-based, mouse; details: atelocollagen complex; relative to control cells set to 100%; n = 4, P < 0.01
Description: Figure 8 Inhibition of cell cycle progression and cell growth by the NBD peptide. MSS31 cells were treated with atelocollagen alone or the NBD or the CBD peptide/atelocollagen complex in vitro. (a) Cell cycle progression. The cells were labeled with BrdU and then subjected to flow cytometry. (b) Cell growth. The values represent cell growth rate relative to that of control cells that is set to 100%. The NBD peptide inhibited the growth of MSS31 cells compared to the control cells (atelocollagen alone). Data represent the mean ± SD (n = 4), P < 0.01. TEXT PRINTED IN THE PICTURE: (a) NBD: S:13.2%; G1:70.7%; G2/M:9.6% | (a) CBD: S:32.1%; G1:55.4%; G2/M:8.9% | (a) peptide(−): S:36.7%; G1:49.6%; G2/M:9.7%

[3] = test system: NMIIA (Ser1943) in MSS31 cells; test: NMIIA Ser1943 phosphorylation by western blot; format: cell-based, mouse; details: 5 μg/well, 18 hours
Description: Figure 6 Stimulation of NMIIA phosphorylation and filament assembly by the NBD peptide. MSS31 cells incubated with atelocollagen alone or the peptide/atelocollagen complexes were subjected to western blot analysis and immunofluorescent staining. (a) Western blot analysis of NMIIA phosphorylation. Total cellular proteins were subjected to immunoblot analysis. The band intensity of p-NMIIA relative to that of total NMIIA was measured using ImageJ software and normalized to control cells. (b) NMIIA assembly. MSS31 cells were simultaneously incubated with rabbit polyclonal anti-S100A4 antibody and mouse monoclonal anti-NMIIA antibody followed by Alexa Fluor 488-conjugated goat antirabbit IgG and Alexa Fluor 594-conjugated goat antimouse IgG. Nuclei were stained with DAPI. Scale bars: 50 μm. (c) Blockade of S100A4-NMIIA interaction by the NBD peptide. MSS31 cells were immunostained as in a. White arrows and yellow arrows indicate colocalized areas and independently localized areas of S100A4 and NMIIA, respectively. Bars: 20 μm. TEXT PRINTED IN THE PICTURE: (a) NBD: p-NMIIA/total NMIIA: 1.78 | (a) CBD: p-NMIIA/total NMIIA: 0.66 […]

NBD: N-terminal 39 amino acid sequence of SBD, from Arg170 to Ileu208; corresponding to MetAP2 (170–208) (REAAEAHRQVRKYVMSWIKPGMTMIEICEKLEDCSRKLI)
tumor angiogenesis [1]: severely impaired
growth of MSS31 cells [2]: significantly inhibited the growth of MSS31 cells
Ser1943 phosphorylation of NMIIA ([3]; atelocollagen complex): enhanced Ser1943 phosphorylation of NMIIA
p-NMIIA/total NMIIA ([3]; band intensity, normalized to control cells (atelocollagen alone)): 1.78
